PMC3958129, “Enzyme kinetics and distinct modulation of the protein kinase N family of kinases by lipid activators and small molecule inhibitors” (Bioscience Reports, 2014)
Read-outs that look alike come from different tables or passages of the source.

Columns and labels:
PKN1 [1] = target: T1, PKN1 (Homo sapiens, UniProt Q16512); assay: PKN1 kinase inhibition, off-chip mobility shift assay; assay type: biochemical; parameters: Full-length, FLAG-tagged human PKN1, PKN2 and PKN3 were expressed in mammalian HEK-293 cells; host or cells: HEK-293 (transient transfection, pcDNA4/TO)
PKN2 [2] = test system: PKN2; parameters: method as in PMID 17850214, PMID 10998351; conditions: ref [29],[30], cited from earlier work
Src = conditions: read-out: IC50 Src; panel of over 70 protein kinases; ref [29]; cited from earlier work
CSK = conditions: read-out: IC50 CSK; panel of over 70 protein kinases; ref [29]; cited from earlier work
CK1δ = conditions: read-out: IC50 CK1δ; panel of over 70 protein kinases; ref [29]; cited from earlier work
RIP2 = conditions: read-out: IC50 RIP2; panel of over 70 protein kinases; ref [29]; cited from earlier work
Lck = conditions: read-out: IC50 Lck; panel of over 70 protein kinases; ref [29]; cited from earlier work
PKN3 [3] = target: T2, PKN3 (Homo sapiens, UniProt Q6P5Z2); assay: PKN3 kinase inhibition, off-chip mobility shift assay; assay type: biochemical; parameters: Full-length, FLAG-tagged human PKN1, PKN2 and PKN3 were expressed in mammalian HEK-293 cells
PKN2 [4] = target: T3, PKN2 (Homo sapiens, UniProt Q16513); assay: PKN2 kinase inhibition, off-chip mobility shift assay; assay type: biochemical; parameters: Full-length, FLAG-tagged human PKN1, PKN2 and PKN3 were expressed in mammalian HEK-293 cells; host or cells: HEK-293 (transient transfection, pcDNA4/TO); conditions: absence of lipids; fit to competitive inhibition; ±S.D., n=2; read-out: PKN2, Ki
PKN1, PKN2 and PKN3 = assay: PKN isoform selectivity from Ki values (Ki ratio); assay type: biochemical, human
PKN1 [5] = target: T1, PKN1; assay: Lipid activation of PKN1 kinase activity, off-chip mobility shift assay; assay type: biochemical; parameters: Full-length, FLAG-tagged human PKN1, PKN2 and PKN3 were expressed in mammalian HEK-293 cells; host or cells: HEK-293 (transient transfection, pcDNA4/TO); conditions: saturating ATP (500 μM), 3 μM peptide, 1 nM PKN1; for PKN1 Maximal fold activation: increase in initial rate
Protocol: (§1) Lipids were supplied as a solid powders, ethanol, or chloroform solutions. All solids were dissolved directly into assay buffer and briefly water bath sonicated at room temperature for 10 min. Lipids supplied as solutions in organic solvent were dried under a gentle stream of nitrogen, resuspended in assay buffer, and similarly sonicated. All lipids were prepared fresh daily.
(§2) The activity of all PKN proteins was monitored through the use of a highly sensitive off-chip mobility shift assay utilizing a LabChip EZ Reader II instrument (Caliper Life Sciences/PerkinElmer); this assay format has been described elsewhere. Kinase activity was monitored through the phosphorylation of a 5-FAM-labelled PKN substrate peptide found through Pfizer in-house optimization efforts and derived from the amino acid sequence of GSK3α (accession no. AAH51865.1) with the following sequence: 5-FAM-C6-[…]-NH2. The likely site of phosphorylation is underlined, as determined through comparison with the published phosphorylation consensus sequence for PKN1 and PKN3 substrates. Reaction buffer contained 25 mM Tris, pH 8.0, 5 mM MgCl2, 0.002% CHAPS and 2 mM DTT, with indicated protein, ATP and peptide concentrations. Peptide concentration was adjusted according to purity and peptide content. For inhibition studies, the inhibitor was pre-incubated with enzyme for 15 min at room temperature. All reactions were initiated with ATP and conducted at room temperature (~22°C). Reactions were terminated by the addition of EDTA, pH 8.0, at a final concentration of 25 mM. All reaction rates were determined to be linear with respect to time and enzyme concentration where no more than 20% of peptide substrate had been converted to product. Aliquots of each reaction were transferred in duplicate to a 384-well plate and analysed on a LabChip EZ Reader II with separation buffer containing 100 mM Hepes, pH 7.5, 0.015% Brij-35, 1 mM EDTA, 0.1% CR3 coating reagent, 1×CR8 coating reagent and 5% DMSO, with the following settings: downstream voltage: −500 V, upstream voltage: −2300 V, base pressure: −0.5 psi; screen pressure: −1.7 psi. […]
(§3) Figure 2 PKN responses to lipid activators in biochemical assays Lipids were prepared as described under the Experimental section, and kinase activity of PKN isoforms was measured using off-chip mobility shift assay described in the Methods section. Each lipid was titrated in the presence of 1 nM, 5 nM and 3 nM PKN1–3, respectively, 3 μM peptide and 500 μM ATP. vi is the initial rate at each concentration of lipid activator and vo is the initial rate in the absence of lipid.

PKN3 [6] = target: T2, PKN3; assay: Bisubstrate steady-state kinetic analysis of PKN3 in the presence of arachidonic acid
PKN2 [7] = target: T3, PKN2; assay: Bisubstrate steady-state kinetic analysis of PKN2 in the presence of arachidonic acid
PKN3 [8] = target: T2, PKN3; assay: Lipid activation of PKN3 kinase activity, off-chip mobility shift assay; assay type: biochemical; parameters: Full-length, FLAG-tagged human PKN1, PKN2 and PKN3 were expressed in mammalian HEK-293 cells
Protocol: as §1
The activity of all PKN proteins was monitored through the use of a highly sensitive off-chip mobility shift assay utilizing a LabChip EZ Reader II instrument (Caliper Life Sciences/PerkinElmer); this assay format has been described elsewhere. Kinase activity was monitored through the phosphorylation of a 5-FAM-labelled PKN substrate peptide found through Pfizer in-house optimization efforts and derived from the amino acid sequence of GSK3α (accession no. AAH51865.1) with the following sequence: 5-FAM-C6-[…]-NH2. The likely site of phosphorylation is underlined, as determined through comparison with the published phosphorylation consensus sequence for PKN1 and PKN3 substrates. Reaction buffer contained 25 mM Tris, pH 8.0, 5 mM MgCl2, 0.002% CHAPS and 2 mM DTT, with indicated protein, ATP and peptide concentrations. Peptide concentration was adjusted according to purity and peptide content. For inhibition studies, the inhibitor was pre-incubated with enzyme for 15 min at room temperature. All reactions were initiated with ATP and conducted at room temperature (~22°C). Reactions were terminated by the addition of EDTA, pH 8.0, at a final concentration of 25 mM. All reaction rates were determined to be linear with respect to time and enzyme concentration where no more than 20% of peptide substrate had been converted to product. Aliquots of each reaction were transferred in duplicate to a 384-well plate and analysed on a LabChip EZ Reader II with separation buffer containing 100 mM Hepes, pH 7.5, 0.015% Brij-35, 1 mM EDTA, 0.1% CR3 coating reagent, 1×CR8 coating reagent and 5% DMSO, with the following settings: downstream voltage: −500 V, upstream voltage: −2300 V, base pressure: −0.5 psi; screen pressure: −1.7 psi.
Ki values for representative inhibitors were determined by fitting initial reaction velocities to eqn (2) for competitive inhibition using the method of non-linear least-squares using GraphPad Prism. Turnover number (kcat) was calculated by normalizing Vmax values for enzyme concentration.
as §3

PKN1 [9] = target: T1, PKN1; assay: Bisubstrate steady-state kinetic analysis of PKN1 in the presence of arachidonic acid
PKN2 [10] = target: T3, PKN2; assay: Lipid activation of PKN2 kinase activity, off-chip mobility shift assay; assay type: biochemical; parameters: Full-length, FLAG-tagged human PKN1, PKN2 and PKN3 were expressed in mammalian HEK-293 cells; host or cells: HEK-293 (transient transfection, pcDNA4/TO)
Protocol: as §1, §2, §3

[11] = absence of lipids, fit to competitive inhibition, ±S.D., n=2, read-out: PKN1, Ki
[12] = 100 μM vs 0 μM arachidonic acid

T1 sequence (Q16512 whole entry): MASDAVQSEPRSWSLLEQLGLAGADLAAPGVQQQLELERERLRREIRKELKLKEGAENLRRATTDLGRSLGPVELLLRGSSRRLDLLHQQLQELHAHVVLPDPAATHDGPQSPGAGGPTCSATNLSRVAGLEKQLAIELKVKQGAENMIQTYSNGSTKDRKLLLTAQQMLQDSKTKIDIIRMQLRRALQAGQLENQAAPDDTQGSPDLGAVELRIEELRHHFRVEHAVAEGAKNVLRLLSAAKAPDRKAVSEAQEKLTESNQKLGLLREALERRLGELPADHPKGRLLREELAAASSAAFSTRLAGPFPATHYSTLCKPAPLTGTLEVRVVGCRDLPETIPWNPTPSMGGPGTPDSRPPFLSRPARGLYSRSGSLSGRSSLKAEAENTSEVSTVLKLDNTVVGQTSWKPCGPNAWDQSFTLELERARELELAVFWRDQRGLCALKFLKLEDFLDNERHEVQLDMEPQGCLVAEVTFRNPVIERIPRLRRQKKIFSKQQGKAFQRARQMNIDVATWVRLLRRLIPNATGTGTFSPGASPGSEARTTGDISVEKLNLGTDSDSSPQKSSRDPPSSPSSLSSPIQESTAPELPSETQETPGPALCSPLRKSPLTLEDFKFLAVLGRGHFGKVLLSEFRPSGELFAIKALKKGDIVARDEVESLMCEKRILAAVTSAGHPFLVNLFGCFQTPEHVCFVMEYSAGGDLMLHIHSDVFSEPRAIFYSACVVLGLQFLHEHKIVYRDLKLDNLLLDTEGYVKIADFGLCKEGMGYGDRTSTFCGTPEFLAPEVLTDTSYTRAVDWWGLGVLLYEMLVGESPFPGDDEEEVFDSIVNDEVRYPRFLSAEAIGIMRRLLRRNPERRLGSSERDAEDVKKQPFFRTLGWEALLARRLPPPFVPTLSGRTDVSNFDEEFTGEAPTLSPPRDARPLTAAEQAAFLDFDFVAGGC
T2 sequence (Q6P5Z2 whole entry): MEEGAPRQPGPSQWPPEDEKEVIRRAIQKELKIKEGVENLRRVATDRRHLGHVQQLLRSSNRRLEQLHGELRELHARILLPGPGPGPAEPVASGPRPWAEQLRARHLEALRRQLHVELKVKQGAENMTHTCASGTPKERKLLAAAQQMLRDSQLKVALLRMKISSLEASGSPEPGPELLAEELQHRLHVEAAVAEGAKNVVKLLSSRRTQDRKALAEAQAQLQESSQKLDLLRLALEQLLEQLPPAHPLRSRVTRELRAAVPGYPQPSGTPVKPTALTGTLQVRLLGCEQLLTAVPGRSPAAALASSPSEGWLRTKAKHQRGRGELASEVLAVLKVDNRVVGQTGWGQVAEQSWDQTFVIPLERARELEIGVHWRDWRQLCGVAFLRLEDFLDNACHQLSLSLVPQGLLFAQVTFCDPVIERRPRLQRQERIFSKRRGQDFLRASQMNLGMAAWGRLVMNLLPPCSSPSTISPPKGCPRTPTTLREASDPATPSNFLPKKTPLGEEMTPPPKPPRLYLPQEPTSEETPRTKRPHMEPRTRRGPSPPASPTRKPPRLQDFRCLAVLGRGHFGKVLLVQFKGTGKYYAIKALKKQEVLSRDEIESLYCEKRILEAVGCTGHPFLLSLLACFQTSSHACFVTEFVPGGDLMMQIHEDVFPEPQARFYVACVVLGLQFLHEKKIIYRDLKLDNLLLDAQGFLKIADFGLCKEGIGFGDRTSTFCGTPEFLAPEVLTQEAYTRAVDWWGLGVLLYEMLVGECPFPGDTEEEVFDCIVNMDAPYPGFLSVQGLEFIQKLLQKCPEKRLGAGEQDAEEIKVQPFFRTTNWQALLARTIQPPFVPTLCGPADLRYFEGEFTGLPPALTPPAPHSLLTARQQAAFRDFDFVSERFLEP
T3 sequence (Q16513 whole entry, canonical isoform): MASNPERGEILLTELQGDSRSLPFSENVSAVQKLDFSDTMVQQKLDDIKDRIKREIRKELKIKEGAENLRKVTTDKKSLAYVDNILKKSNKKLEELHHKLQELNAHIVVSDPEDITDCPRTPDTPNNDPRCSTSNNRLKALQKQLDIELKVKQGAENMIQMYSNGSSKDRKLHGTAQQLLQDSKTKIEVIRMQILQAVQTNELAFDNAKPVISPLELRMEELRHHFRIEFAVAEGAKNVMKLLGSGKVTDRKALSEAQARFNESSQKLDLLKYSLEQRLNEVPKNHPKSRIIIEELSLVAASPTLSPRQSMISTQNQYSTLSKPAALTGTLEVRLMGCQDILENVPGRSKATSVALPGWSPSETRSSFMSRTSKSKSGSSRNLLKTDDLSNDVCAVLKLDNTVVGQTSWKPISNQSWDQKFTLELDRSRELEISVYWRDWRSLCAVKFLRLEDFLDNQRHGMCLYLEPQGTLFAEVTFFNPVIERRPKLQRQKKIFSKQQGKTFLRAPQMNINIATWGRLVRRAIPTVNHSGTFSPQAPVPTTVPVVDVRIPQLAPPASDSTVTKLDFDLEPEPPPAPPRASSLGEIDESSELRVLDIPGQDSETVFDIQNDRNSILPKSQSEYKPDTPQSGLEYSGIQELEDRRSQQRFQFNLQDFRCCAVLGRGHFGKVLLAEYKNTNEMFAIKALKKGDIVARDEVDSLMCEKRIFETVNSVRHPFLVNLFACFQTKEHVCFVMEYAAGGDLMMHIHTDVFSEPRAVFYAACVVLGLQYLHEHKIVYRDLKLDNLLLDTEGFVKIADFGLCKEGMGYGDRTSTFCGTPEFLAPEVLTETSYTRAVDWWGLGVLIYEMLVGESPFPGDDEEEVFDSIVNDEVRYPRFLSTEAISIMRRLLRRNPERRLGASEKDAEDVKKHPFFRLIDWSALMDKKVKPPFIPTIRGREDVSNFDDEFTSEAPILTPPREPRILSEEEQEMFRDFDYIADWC

In the case of `C[C@@H](N)[C@H]1CC[C@H](C(=O)Nc2ccncc2)CC1` [Compound 7, Y27632], the Ki (PKN1 [1]; [11]) is listed as 700 ± 200 nM and the IC50 (PKN2 [2]) is listed as […].

In the case of `Cc1ccc(-c2nn(C(C)(C)C)c3ncnc(N)c23)cc1` [Compound 8, PP1], the IC50 (Src) is listed as […], the Ki (PKN1 [1]) is listed as over 5000 nM and the IC50 (CSK) is listed as 640 nM. The IC50 (CK1δ) was 170 nM, the IC50 (RIP2) was 26 nM and the IC50 (Lck) was […]. The PKN2 remaining activity (PKN2 [2]; at 1 μM) was 84% and the Ki (PKN3 [3]) was 1.3 ± 0.1 nM.

`Nc1nc(Nc2ccc(S(N)(=O)=O)cc2)nn1C(=S)Nc1c(F)cccc1F` [Compound 6, CDK1/2 inhibitor III] showed a Ki (PKN2 [4]) of 12 ± 2 nM, a Ki (PKN1 [1]; [11]) of 220 ± 20 nM and a Ki (PKN3 [3]; absence of lipids, fit to competitive inhibition, ±S.D., n=2, read-out: PKN3, Ki) of 34 ± 2 nM. The “selectivity for PKN2 over PKN1” value (PKN1, PKN2 and PKN3; from Ki values) was 18 fold, the “selectivity for PKN2 over PKN3” value (PKN1, PKN2 and PKN3; in words) was “only minimal selectivity” and the Isoform selectivity (PKN1, PKN2 and PKN3; isoform(s) preferred, defined as ~10-fold or greater Ki ratio) was “PKN2/3”.

With `CCCCC/C=C\C/C=C\C/C=C\C/C=C\CCCC(=O)O` [Arachidonic Acid] the “PKN1 Maximal fold activation” value (PKN1 [5]) was 16 fold, the “PKN1 Maximal fold activation” value (PKN1 [5]; listed as arachidonic acid) was 10–16 fold and the EC50 (PKN1 [5]; lipid activator) was 11000 ± 1000 nM. For the same molecule, the “Kia of PKN3 (equilibrium dissociation constant of ATP)” value (PKN3 [6]; 5 μM arachidonic acid) was 14 ± 3 µM, the “kcat of PKN3” value (PKN3 [6]; 5 μM arachidonic acid) was 1.1 ± 0.1 s⁻¹ and the “reduction of ATP KM for PKN3” value (PKN3 [6]; 5 μM vs 0 μM arachidonic acid) was 3 fold. For the same molecule, the “effect on kcat for PKN3” value (PKN3 [6]; arachidonic acid at 5 μM) was “no effect”, the “decrease in KM,Pep of PKN3” value (PKN3 [6]; arachidonic acid at 5 μM vs 0 μM) was 4 fold and the “Kia of PKN2 (equilibrium dissociation constant of ATP)” value (PKN2 [7]; 100 μM arachidonic acid) was 2 ± 1 µM. The “kcat of PKN2” value (PKN2 [7]; 100 μM arachidonic acid) was 0.9 ± 0.1 s⁻¹, the “increase in catalytic efficiency (kcat/KM,Pep) of PKN2” value (PKN2 [7]; [12]) was 12 fold and the “increase in kcat for PKN2” value (PKN2 [7]; [12]) was 9 fold. For the same molecule, the “increase in kcat/KM,ATP of PKN2” value (PKN2 [7]; [12]) was 45 fold, the “reduction of ATP KM for PKN2” value (PKN2 [7]; [12]) was 6 fold and the “effect on PKN3 kinase activity” value (PKN3 [8]; higher concentrations of arachidonic acid (above 5 μM)) was “significantly inhibited”. The “PKN3 Maximal fold activation” value (PKN3 [8]; increase in initial rate, saturating ATP (500 μM), 3 μM peptide, 3 nM PKN3) was under 2 fold, the “effect on PKN3 kinase activity” value (PKN3 [8]; relatively low (5 μM) concentration of arachidonic acid) was “slightly stimulated” and the “Kia of PKN1 (equilibrium dissociation constant of ATP)” value (PKN1 [9]; 100 μM arachidonic acid) was 19 ± 10 µM. For the same molecule, the “kcat of PKN1” value (PKN1 [9]; 100 μM arachidonic acid) was 13 ± 6 s⁻¹, the “effect on ATP KM for PKN1” value (PKN1 [9]; [12]) was “relatively unaffected” and the “increase in catalytic efficiency (kcat/KM,Pep) of PKN1” value (PKN1 [9]; [12]) was 32 fold. The “increase in kcat for PKN1” value (PKN1 [9]; [12]) was 18 fold, the “effect on PKN2 kinase activity” value (PKN2 [10]; in words, saturating ATP) was “increased” and the “PKN2 Maximal fold activation” value (PKN2 [10]; increase in initial rate, saturating ATP (500 μM), 3 μM peptide, 5 nM PKN2) was 7 fold. For the same molecule, the EC50 (PKN2 [10]; lipid activator, saturating ATP (500 μM), 3 μM peptide, 5 nM PKN2) was 9000 ± 1000 nM.
